{"source": "patent US12371454B2", "about": "“Cyclic peptide compound having Kras inhibitory action” (priority 2019, dated 2025)", "key": {"[1]": {"tested_on": "Human pancreatic cancer cell line AsPC-1", "test": "Measurement of AsPC-1 cell growth inhibition (AsPC-1 CGI)", "assay_type": "cell-based", "details": "96 h", "how_it_was_run": "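AsPC-1 cells in 15% FBS RPMI-1640 were exposed to test compound for 96 hours at 37° C, with CellTiter-Glo as endpoint.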"}, "[2]": {"target": "T1, Kras and SOS1 (biotin-tagged human Kras loaded with GDP, His-tagged human SOS1) (Homo sapiens, UniProt P01116, G12D)", "T1 construct": "made in house; host or cells: E. coli (stated for Kras only)", "T1 sequence (P01116 1-188 isoform P01116-2 G12D)": "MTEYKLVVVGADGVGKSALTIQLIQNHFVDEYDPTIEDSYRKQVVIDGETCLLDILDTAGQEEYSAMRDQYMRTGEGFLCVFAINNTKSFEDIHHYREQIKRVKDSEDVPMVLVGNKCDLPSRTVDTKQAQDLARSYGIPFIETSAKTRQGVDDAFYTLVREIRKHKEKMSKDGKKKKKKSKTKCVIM", "test": "Protein-protein interaction inhibition between Kras and SOS1 (KrasGl2D-SOS PPI) using AlphaScreen", "assay_type": "binding", "details": "AlphaScreen; biotin-tagged human Kras loaded with GDP, His-tagged human SOS1; read-out: KRAS G12D-SOS PPI IC50", "how_it_was_run": "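Kras was produced in E. coli, purified, then loaded with GDP. It was paired via streptavidin acceptor beads with His-SOS1 held on nickel donor beads, and proximity signal at 520-620 nm was read after 680 nm illumination.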"}}, "note": "Starred links: 1 amine or outer side, 2 acyl side, 3 side chain; linkers in the order of their positions; H or OH if unused. Positions of bridges follow the written chain, without caps; N, C: chain ends. Non-standard residues stand in square brackets, D forms with d. Residues, ends and D or L forms follow the SMILES beside them. *: point of attachment. hPhe(3-Cl-4-CF3) = N[C@@H](CCc1ccc(C(F)(F)F)c(Cl)c1)C(=O)O; NMeAla(4-thiazolyl) = CN[C@@H](Cc1cscn1)C(=O)O; 3Oxa8azabicyclo(3.2.1)octane = C1CC2COCC1N2*; NMedβ3hAla = C[C@H](CC(=O)[*:2])N(C)[*:1]; NMeNva(5,5-F2) = CN[C@@H](CCC(F)F)C(=O)O; NMeGly(cPent) = CN[C@H](C(=O)O)C1CCCC1; NMe4Pal = CN[C@@H](Cc1ccncc1)C(=O)O; NMeCha = CN[C@@H](CC1CCCCC1)C(=O)O; NMeCba = CN[C@@H](CC1CCC1)C(=O)O; NMeChg = CN[C@H](C(=O)O)C1CCCCC1; Gly(cBu) = N[C@H](C(=O)O)C1CCC1; NMeD = CN[C@@H](CC(=O)O)C(=O)O; NMeL = CN[C@@H](CC(C)C)C(=O)O; NMeNle = CCCC[C@H](NC)C(=O)O; NMeV = CN[C@H](C(=O)O)C(C)C; Ac6c = NC1(C(=O)O)CCCCC1; NMeA = CN[C@@H](C)C(=O)O; Piperidide = C1CCN(*)CC1; Pyrrolidide = C1CCN(*)C1; Ac5c = NC1(C(=O)O)CCCC1; Aze = O=C(O)[C@@H]1CCN1; Sar = CNCC(=O)O"}
{"molecule": "CC[C@H](C)[C@@H]1NC(=O)[C@H](C2CCCCC2)N(C)C(=O)C[C@@H](C(=O)N2CCCCC2)N(C)C(=O)[C@H](C(C)C)N(C)C(=O)C2(CCCC2)NC(=O)[C@@H]2CCCN2C(=O)[C@H](CCc2ccc(C(F)(F)F)c(Cl)c2)NC(=O)CN(C)C(=O)[C@H](CC2CCCCC2)N(C)C(=O)CN(C)C(=O)CN(C)C1=O", "note": "[Compound 106] ([NMeChg]I[Sar][Sar][NMeCha][Sar][hPhe(3-Cl-4-CF3)]P[Ac5c][NMeV][NMeD]-Piperidide; lactam N-11)", "values": [{"measurement": "IC50", "setting": "[1]", "result": "100 to 500", "unit": "nM"}, {"measurement": "IC50", "setting": "[2]", "result": 8.9, "unit": "nM"}]}
{"molecule": "CCCC[C@H]1C(=O)N[C@@H]([C@@H](C)CC)C(=O)N(C)CC(=O)N(C)CC(=O)N(C)[C@@H](CC2CCCCC2)C(=O)N(C)CC(=O)N[C@@H](CCc2ccc(C(F)(F)F)c(Cl)c2)C(=O)N2CCC[C@H]2C(=O)NC2(CCCC2)C(=O)N(C)[C@@H](C2CCCCC2)C(=O)N(C)[C@H](C(=O)N2CCCCC2)CC(=O)N1C", "note": "[Compound 1740] ([NMeNle]I[Sar][Sar][NMeCha][Sar][hPhe(3-Cl-4-CF3)]P[Ac5c][NMeChg][NMeD]-Piperidide; lactam N-11)", "values": [{"measurement": "IC50", "setting": "[1]", "result": "50 to 100", "unit": "nM"}, {"measurement": "IC50", "setting": "[2]", "result": 0.79, "unit": "nM"}]}
{"molecule": "CC[C@H](C)[C@@H]1NC(=O)[C@H](CC(C)C)N(C)C(=O)C[C@@H](C)N(C)C(=O)[C@H](C(C)C)N(C)C(=O)C2(CCCCC2)NC(=O)[C@@H]2CCCN2C(=O)[C@H](CCc2ccc(C(F)(F)F)c(Cl)c2)NC(=O)CN(C)C(=O)[C@H](CC2CCCCC2)N(C)C(=O)CN(C)C(=O)CN(C)C1=O", "note": "[Compound 81] (cyclo([Ac6c][NMeV][NMedβ3hAla][NMeL]I[Sar][Sar][NMeCha][Sar][hPhe(3-Cl-4-CF3)]P))", "values": [{"measurement": "IC50", "setting": "[1]", "result": "100 to 500", "unit": "nM"}, {"measurement": "IC50", "setting": "[2]", "result": 14, "unit": "nM"}]}
{"molecule": "CC[C@H](C)[C@@H]1NC(=O)[C@H](CC(C)C)N(C)C(=O)C[C@@H](C(=O)N2CCCC2)N(C)C(=O)[C@H](C(C)C)N(C)C(=O)C2(CCCC2)NC(=O)[C@@H]2CCCN2C(=O)[C@H](CCc2ccc(C(F)(F)F)c(Cl)c2)NC(=O)CN(C)C(=O)[C@H](CC2CCCCC2)N(C)C(=O)CN(C)C(=O)CN(C)C1=O", "note": "[Compound 1711] ([NMeL]I[Sar][Sar][NMeCha][Sar][hPhe(3-Cl-4-CF3)]P[Ac5c][NMeV][NMeD]-Pyrrolidide; lactam N-11)", "values": [{"measurement": "IC50", "setting": "[1]", "result": "100 to 500", "unit": "nM"}, {"measurement": "IC50", "setting": "[2]", "result": 0.78, "unit": "nM"}]}
{"molecule": "CC[C@H](C)[C@@H]1NC(=O)[C@H](CC2CCC2)N(C)C(=O)C[C@@H](C(=O)N2CCCCC2)N(C)C(=O)[C@H](C(C)C)N(C)C(=O)C2(CCCC2)NC(=O)[C@@H]2CCCN2C(=O)[C@H](CCc2ccc(C(F)(F)F)c(Cl)c2)NC(=O)CN(C)C(=O)[C@H](CC2CCCCC2)N(C)C(=O)CN(C)C(=O)CN(C)C1=O", "note": "[Compound 911] ([NMeCba]I[Sar][Sar][NMeCha][Sar][hPhe(3-Cl-4-CF3)]P[Ac5c][NMeV][NMeD]-Piperidide; lactam N-11)", "values": [{"measurement": "IC50", "setting": "[1]", "result": "100 to 500", "unit": "nM"}, {"measurement": "IC50", "setting": "[2]", "result": 4.5, "unit": "nM"}]}
{"molecule": "CC[C@H](C)[C@@H]1NC(=O)[C@H](CCC(F)F)N(C)C(=O)C[C@@H](C(=O)N2CCCCC2)N(C)C(=O)[C@H](C2CCCCC2)N(C)C(=O)C2(CCCC2)NC(=O)[C@@H]2CCCN2C(=O)[C@H](CCc2ccc(C(F)(F)F)c(Cl)c2)NC(=O)CN(C)C(=O)[C@H](CC2CCCCC2)N(C)C(=O)CN(C)C(=O)CN(C)C1=O", "note": "[Compound 1700] ([NMeNva(5,5-F2)]I[Sar][Sar][NMeCha][Sar][hPhe(3-Cl-4-CF3)]P[Ac5c][NMeChg][NMeD]-Piperidide; lactam N-11)", "values": [{"measurement": "IC50", "setting": "[1]", "result": "20 to 50", "unit": "nM"}, {"measurement": "IC50", "setting": "[2]", "result": 0.66, "unit": "nM"}]}
{"molecule": "CC[C@H](C)[C@@H]1NC(=O)[C@H](CC(C)C)N(C)C(=O)C[C@@H](C(=O)N2CCCCC2)N(C)C(=O)[C@H](C2CCCCC2)N(C)C(=O)C2(CCCC2)NC(=O)[C@H](Cc2ccncc2)N(C)C(=O)[C@H](CCc2ccc(C(F)(F)F)c(Cl)c2)NC(=O)CN(C)C(=O)[C@H](CC2CCCCC2)N(C)C(=O)[C@@H]2CCN2C(=O)CN(C)C1=O", "note": "[Compound 480] ([NMeL]I[Sar][Aze][NMeCha][Sar][hPhe(3-Cl-4-CF3)][NMe4Pal][Ac5c][NMeChg][NMeD]-Piperidide; lactam N-11)", "values": [{"measurement": "IC50", "setting": "[1]", "result": "100 to 500", "unit": "nM"}, {"measurement": "IC50", "setting": "[2]", "result": 1.4, "unit": "nM"}]}
{"molecule": "CC[C@H](C)[C@@H]1NC(=O)[C@H](CC(C)C)N(C)C(=O)C[C@@H](C(=O)N(C)C)N(C)C(=O)[C@H](C2CCCC2)N(C)C(=O)C2(CCCC2)NC(=O)[C@H](Cc2cscn2)N(C)C(=O)[C@H](CCc2ccc(C(F)(F)F)c(Cl)c2)NC(=O)CN(C)C(=O)[C@H](CC2CCCCC2)N(C)C(=O)[C@@H]2CCN2C(=O)[C@H](C)N(C)C1=O", "note": "[Compound 384] ([NMeL]I[NMeA][Aze][NMeCha][Sar][hPhe(3-Cl-4-CF3)][NMeAla(4-thiazolyl)][Ac5c][NMeGly(cPent)][NMeD]-NMe2; lactam N-11)", "values": [{"measurement": "IC50", "setting": "[1]", "result": "100 to 500", "unit": "nM"}, {"measurement": "IC50", "setting": "[2]", "result": 1, "unit": "nM"}]}
{"molecule": "CC(C)C[C@H]1C(=O)N[C@@H](C2CCC2)C(=O)N(C)CC(=O)N(C)CC(=O)N(C)[C@@H](CC2CCCCC2)C(=O)N(C)CC(=O)N[C@@H](CCc2ccc(C(F)(F)F)c(Cl)c2)C(=O)N2CCC[C@H]2C(=O)NC2(CCCC2)C(=O)N(C)[C@@H](C2CCCCC2)C(=O)N(C)[C@H](C(=O)N2C3CCC2COC3)CC(=O)N1C", "note": "[Compound 1879] ([NMeL][Gly(cBu)][Sar][Sar][NMeCha][Sar][hPhe(3-Cl-4-CF3)]P[Ac5c][NMeChg][NMeD]-{3Oxa8azabicyclo(3.2.1)octane}; lactam N-11)", "values": [{"measurement": "IC50", "setting": "[1]", "result": "50 to 100", "unit": "nM"}, {"measurement": "IC50", "setting": "[2]", "result": 0.66, "unit": "nM"}]}
